The subject of this data set is healthy mice. Nature of the data set: Toxicology testing in healthy mice: pathological evaluation. The data set is classed as in vivo. How it is done: The purpose of this example was to determine approximate toxicity of the compound 3[(5-methyl-2-thienyl) methylene]-2,4(3H,5H)-furandione in healthy mice. The in vivo concentrations employed in the example were selected by using the in vitro results in the Human Tumor Stem Cell Assay as a guide. The compound was given to the mice by means of intra-peritoneal injection. In addition to a control group which was injected with the appropriate carrier solution without drug, three test groups with calculated plasma concentrations of 1, 10 and 100 mcg/ml (low, medium and high concentrations) were prepared. Based upon the results from Table 1, the three test groups represent low, medium and high concentrations of drug dosages. The highest concentration of 100 mcg/ml is about 10 times the predicted effective dose (in vivo) of tumoricidal activity. Each group contained eight animals. Blood was extracted from four animals in each group two days after the intraperitoneal injection and routine hematology (i.e., a hemoglobin concentration, a white blood cell count, and a neutrophil count) procedures were performed.
As previously stated, half of the animals in each group were sacrificed after one week (Day 7), and the remaining animals were sacrificed after two weeks (Day 14). […]

The values that follow come from patent US4996227A, “3-(heteroarylalkyene)- and 3-(arylalkylene)-2,4(3H,5H)-heterocyclic diones as cancer chemotherapy drugs” (priority 1989, dated 1991).

On to `Cc1ccc(C=C2C(=O)COC2=O)s1` [Compound 4, 3[(5-methyl-2-thienyl)methylene]2,4(3H,5H)-furandione], for which the “pathology of organs, bone, brain, etc.” value (all dose groups, 7 or 14 days) is recorded as “not remarkably altered within the testing period”. The “pathology of organs, bone, etc., vs low concentration and control groups” value (high concentrations) is given as “do not appear to affect any of the organs, bone, etc. of the test animals to any lesser or greater degree than the low concentration drug group or the control group”.
